Some results are limits rather than exact numbers.

The values below come from patent US8410284B2, “Cyclic benzimidazole derivatives useful as anti-diabetic agents” (Merck Sharp & Dohme Corp, priority 2008, dated 2013).

The experiment concerns the target recombinant human AMPK complex 1 (containing α1β1γ1) (Homo sapiens, UniProt Q13131+Q9Y478). The experiment is described as follows: In vitro AMPK activation assay (AMPKSAMSF). It is filed as biochemical. The conditions noted are these: recombinant human AMPK complex 1 (α1β1γ1); for Emax: read-out: maximum AMP activation; for % Maximum AMP Activation of human AMPK Complex 1: basal activity subtracted. On the procedure: AMPKSAMSF (In Vitro AMPK Activation Assay)
The recombinant human AMPK complex 1 (containing α1β1γ1) was obtained from baculovirus expression system. Recombinant viruses were generated by cotransfection of AMPK/pBacPak9 clones with Baculogold baculovirus DNA (Pharmingen) in spodoptera frugiperda 21 cells according to the manufacturer's instructions. Each round of virus amplification was performed for 5 days in Grace's medium containing 10% serum. Virus that had been subjected to three rounds of amplification was used for all protein production procedures. To express the AMPK complex, sf21 cells were adapted to serum free medium (SF900 II, Invitrogen) by sequential dilution from serum containing stocks into SF900 II medium and maintained in shaker flasks at 90 rpm at 27° C. The recombinant AMPK enzyme complex was produced by triple infection, one recombinant virus for each of the subunits, in sf21 cells under serum free conditions. Cells were infected in log phase, 1×10^6 cells/ml, at a multiplicity of infection of ˜5. Cells were harvested by centrifugation at 10,000×g for 15 minutes after 72 hours of infection with viruses. The insect cell pellet from 2 liters of culture was resuspended in 50 ml lysis buffer (20 mM Tris-HCl, 50 mM NaCl, 50 mM NaF, 30 mM Na PPi, 0.25 M sucrose, 10 mM ZnCl2, 2 mM DTT, 0.4 mg/ml digitonin) and subjected to two cycles of freeze-thaw lysis in a dry-ice ethanol bath. Insoluble material was removed by centrifugation at 10,000×g and the supernatant was fractionated with use of polyethylene glycol (PEG). The protein fraction precipitating between 2.5 and 6% PEG was used for further purification using a Blue-Sepharose step (Zhou et al, J. Clin. Invest. 108, 1167-1174, 2001).
The total in vitro AMPK activation assay volume is 50 μl in a 96-well plate. The reaction mixture contained 100 μM ATP (0.5 μCi ^33P-ATP per reaction), and 50 μM SAMS (HMRSAMSGLHLVKRR) in a buffer (20 mM HEPES, pH 7.0, 5 mM MgCl2, 0.01% Brij35). The reaction was initiated with addition of the enzyme. After 30-minute incubation at 30° C., the reaction was stopped by addition of 80 μl 1% H3PO4. Aliquots (100 μl) were transferred to 96-well MultiScreen plates (MAPHNOB50; Millipore Corp., Bedford, Mass., USA). The plate was washed three times with 1% H3PO4 followed by detection in a Top-count. The counts per minute from the basal activity (the reaction without activator) was subtracted from each well and the data were expressed as % maximum AMP activation followed by EC50 calculation.

recombinant human AMPK complex 1 (containing α1β1γ1), sequence (Q13131 whole entry): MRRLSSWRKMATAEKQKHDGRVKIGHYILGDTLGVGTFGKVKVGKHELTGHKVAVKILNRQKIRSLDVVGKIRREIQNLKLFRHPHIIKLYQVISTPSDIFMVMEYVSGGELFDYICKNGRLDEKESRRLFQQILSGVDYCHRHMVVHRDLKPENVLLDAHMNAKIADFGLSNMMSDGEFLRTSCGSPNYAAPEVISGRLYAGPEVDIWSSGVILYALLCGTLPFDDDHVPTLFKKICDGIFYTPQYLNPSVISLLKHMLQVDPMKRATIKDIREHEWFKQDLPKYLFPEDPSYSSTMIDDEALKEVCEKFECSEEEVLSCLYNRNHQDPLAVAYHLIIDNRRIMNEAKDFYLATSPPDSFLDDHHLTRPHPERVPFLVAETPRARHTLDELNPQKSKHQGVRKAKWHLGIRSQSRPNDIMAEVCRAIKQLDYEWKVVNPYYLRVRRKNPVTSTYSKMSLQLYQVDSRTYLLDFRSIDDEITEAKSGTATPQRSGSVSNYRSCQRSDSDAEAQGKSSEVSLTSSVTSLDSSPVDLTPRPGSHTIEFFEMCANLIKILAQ
recombinant human AMPK complex 1 (containing α1β1γ1), sequence (Q9Y478 whole entry): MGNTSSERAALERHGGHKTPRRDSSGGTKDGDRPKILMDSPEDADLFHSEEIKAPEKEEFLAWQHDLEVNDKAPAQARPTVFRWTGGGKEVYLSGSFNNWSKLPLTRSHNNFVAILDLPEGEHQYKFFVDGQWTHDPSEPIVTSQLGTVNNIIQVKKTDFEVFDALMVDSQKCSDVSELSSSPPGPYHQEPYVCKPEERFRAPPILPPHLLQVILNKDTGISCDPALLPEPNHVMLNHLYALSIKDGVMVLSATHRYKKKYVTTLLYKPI
recombinant human AMPK complex 1 (containing α1β1γ1), sequence (P54619 whole entry partner): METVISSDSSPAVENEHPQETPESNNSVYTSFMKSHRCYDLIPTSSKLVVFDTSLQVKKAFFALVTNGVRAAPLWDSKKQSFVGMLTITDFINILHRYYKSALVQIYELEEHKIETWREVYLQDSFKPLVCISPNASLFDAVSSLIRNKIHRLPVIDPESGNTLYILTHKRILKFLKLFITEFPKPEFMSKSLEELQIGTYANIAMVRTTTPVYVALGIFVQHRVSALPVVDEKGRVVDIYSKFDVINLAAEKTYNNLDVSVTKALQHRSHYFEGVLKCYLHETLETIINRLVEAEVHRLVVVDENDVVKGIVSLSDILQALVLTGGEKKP

`Cc1ccc(Oc2nc3cc(-c4ccc(-c5ccccc5)cc4)c(Cl)cc3[nH]2)cc1[P@@]1(=O)OCC[C@H](c2cccc(Cl)c2)O1` (relative stereo) [Example 19, Trans-5-Biphenyl-4-yl-6-chloro-2-[3-[4-(3-chloro-phenyl)-2-oxo-2-lambda*5*-[1,3,2]dioxaphosphinan-2-yl]-4-methyl-phenoxy]-1H-benzoimidazole]: the Emax was > 80%.

`Cc1ccc(Oc2nc3cc(-c4ccc(-c5ccccc5)cc4)c(Cl)cc3[nH]2)cc1[P@@]1(=O)OCC[C@@H](c2cccc(Cl)c2)O1` (relative stereo) [Example 20, Cis-5-Biphenyl-4-yl-6-chloro-2-[3-[4-(3-chloro-phenyl)-2-oxo-2-lambda*5*-[1,3,2]dioxaphosphinan-2-yl]4-methyl-phenoxy]-1H-benzoimidazole]: the Emax is > 80%.

Turning to `Cc1ccc(Oc2nc3cc(-c4ccc(-c5ccccc5)cc4)c(Cl)cc3[nH]2)cc1[P@@]1(=O)OCC[C@H](c2ccncc2)O1` (relative stereo) [Example 21, Trans-5-Biphenyl-4-yl-6-chloro-2-[4-methyl-3-(2-oxo-4-pyridin-4-yl-2lambda*5*-[1,3,2]dioxophosphinan-2-yl)-phenoxy]-1H-benzoimidazole], the Emax is > 80%.

With `Cc1ccc(Oc2nc3cc(-c4ccc(-c5ccccc5)cc4)c(Cl)cc3[nH]2)cc1[P@@]1(=O)OCC[C@@H](c2ccncc2)O1` (relative stereo) [Example 22, Cis-5-Biphenyl-4-yl-6-chloro-2-[4-methyl-3-(2-oxo-4-pyridin-4-yl-2lambda*5*-[1,3,2]dioxophosphinan-2-yl)-phenoxy]-1H-benzoimidazole], the Emax was > 80%.

As for `O=[P@@]1(c2cccc(Oc3nc4cc(-c5ccc(-c6ccccc6)cc5)c(Cl)cc4[nH]3)c2)OCC[C@@H](c2cccc(Cl)c2)O1` (relative stereo) [Example 23, Trans-5-Biphenyl-4-yl-6-chloro-2-[3-4-(3-chloro-phenyl)-2-oxo-2-lambda*5*-[1,3,2]dioxaphosphinan-2-ylphenoxy]-1H-benzoimidazole], the Emax was > 80%.

Consider `Cc1ccc(Oc2nc3cc(-c4ccc(-c5ccccc5)cc4)c(Cl)cc3[nH]2)cc1P(=O)(O)O` [Example 1, ((5-(4-Biphenyl)-6-chloro-1H-benzimidazol-2-yl)oxo)-4-methylphen-3-ylphosphonic acid], for which the EC50 (commonly the concentration that produces a half-maximal response) worked out at 0.9 nM, the “% Maximum AMP Activation of human AMPK Complex 1” value (“% Maximum AMP Activation” for short) is 175% and the Emax is > 80%.

For the molecule `Cc1ccc(Oc2nc3cc(C#Cc4ccccc4)c(Cl)cc3[nH]2)cc1P(=O)(O)O` [Example 3, ((6-Chloro-5-phenylethynyl-1H-benzimidazol-2-yl)oxo)-4-methylphen-3-ylphosphonic acid], the EC50 came to 0.7 nM, the “% Maximum AMP Activation” value was found to be 192% and the Emax was > 80%.

Regarding `Cc1ccc(Oc2nc3cc(-c4ccc(N5CCOCC5)cc4)c(Cl)cc3[nH]2)cc1P(=O)(O)O` [Example 4, {5-[6-Chloro-5-(4-morpholin-4-yl-phenyl)-1H-benzoimidazol-2-yloxy]-2-methylphenyl}-phosphonic acid], the Emax was > 80%.

With `Cc1ccc(Oc2nc3cc(-c4ccc(C5CCCCC5)cc4)c(Cl)cc3[nH]2)cc1P(=O)(O)O` [Example 5, {5-[6-Chloro-5-(4-cyclohexyl-phenyl)-1H-benzoimidazol-2-yloxy]-2-methylphenyl}phosphonic acid], the EC50 worked out at 4.9 nM, the “% Maximum AMP Activation” value stood at 257% and the Emax is > 80%.

With `Cc1ccc(Oc2nc3cc(-c4ccc(N5CCCC5)cc4)c(Cl)cc3[nH]2)cc1P(=O)(O)O` [Example 6, {5-[6-Chloro-5-(4-pyrrolidin-1-yl-phenyl)-1H-benzoimidazol-2-yloxy]-2-methyl-phenyl}phosphonic acid], the EC50 came out at 1.1 nM, the “% Maximum AMP Activation” value amounted to 223% and the Emax is > 80%.

`O=P(O)(O)c1cccc(Oc2nc3cc(-c4ccc(N5CCOCC5)cc4)c(Cl)cc3[nH]2)c1` [Example 7, {3-[6-Chloro-5-(4-morpholin-4-yl-phenyl)-1H-benzoimidazol-2-yloxy]phenyl}phosphonic acid]: the Emax was > 80%.

On to `Cc1ccc(Oc2nc3cc(-c4ccc(N5CCOCC5)cc4)c(Cl)cc3[nH]2)cc1P(=O)(O)O` [Example 8, 5-(5-chloro-6-(4-morpholinophenyl)-1H-benzo[d]imidazol-2-yloxy)-2-methylphenylphosphonic acid], for which the EC50 stood at 1.2 nM and the “% Maximum AMP Activation” value worked out at 224%.

`Cc1ccc(Oc2nc3cc(-c4ccc5c(ccn5C)c4)c(Cl)cc3[nH]2)cc1P(=O)(O)O` [Example 9, 5-(5-chloro-6-(1-methyl-1H-indol-5-yl)-1H-benzo[d]imidazol-2-yloxy)-2-methylphenylphosphonic acid]: the Emax was > 80%.

In the case of `COc1ccc(C#Cc2cc3nc(Oc4ccc(C)c(P(=O)(O)O)c4)[nH]c3cc2Cl)cc1` [Example 10, 5-(5-chloro-6-(2-(4-methoxyphenyl)ethynyl)-1H-benzo[d]imidazol-2-yloxy)-2-methylphenylphosphonic acid], the Emax was > 80%.

With `O=P(O)(O)c1cncc(Oc2nc3cc(-c4ccc(-c5ccccc5)cc4)c(Cl)cc3[nH]2)c1` [Example 12, [5-(5-Biphenyl-4-yl-6-chloro-1H-benzoimidazol-2-yloxy)-pyridin-3-yl]-phoshponic acid], the Emax was > 80%.

In the case of `O=P(O)(O)c1cccc(Oc2nc3cc(-c4ccc(-c5ccccc5)cc4)c(F)cc3[nH]2)c1` [Example 13, {3-[(5-biphenyl-4-yl-6-fluoro-1H-benzimidazol-2-yl)oxy]phenyl}phosphonic acid], the Emax was > 80%.

As to `O=C(c1cccc(P(=O)(O)O)c1)c1nc2cc(-c3ccc(-c4ccccc4)cc3)c(Cl)cc2[nH]1` [Example 14, {3-[(5-biphenyl-4-yl-6-chloro-1H-benzimidazol-2-yl)carbonyl]phenyl}phosphonic acid], the Emax is > 80%.

Regarding `O=P(O)(O)c1cccc(C(F)(F)c2nc3cc(-c4ccc(-c5ccccc5)cc4)c(Cl)cc3[nH]2)c1` [Example 15, {3-[(5-biphenyl-4-yl-6-chloro-1H-benzimidazol-2-yl)(difluoro)methyl]phenyl}phosphonic acid], the Emax was > 80%.

As for `Cn1ccc2cc(-c3cc4nc(Oc5cccc(P(=O)(O)O)c5)[nH]c4cc3Cl)ccc21` [Example 16, (3-{[6-chloro-5-(1-methyl-1H-indol-5-yl)-1H-benzimidazol-2-yl]oxy}phenyl)phosphonic acid], the EC50 turned out to be 0.6 nM, the “% Maximum AMP Activation” value was determined as 173% and the Emax was > 80%.

Regarding `CCOP(C)(=O)c1cccc(Oc2nc3cc(-c4ccc(-c5ccccc5)cc4)c(Cl)cc3[nH]2)c1` (centres unmarked) [Example 17, [3-(5 Biphenyl-4-yl-6-chloro-1H-benzoimidazol-2-yloxy)-phenyl]-methyl-phosphinic acid ethyl ester], the Emax is > 80%.

On to `CP(=O)(O)c1cccc(Oc2nc3cc(-c4ccc(-c5ccccc5)cc4)c(Cl)cc3[nH]2)c1` [Example 18, [3-(5-Biphenyl-4-yl-6-chloro-1H-benzoimidazol-2-yloxy)-phenyl]-methyl-phosphinic acid], for which the Emax was > 80%.

`O=P1(c2cccc(Oc3nc4cc(-c5ccc(-c6ccccc6)cc5)c(Cl)cc4[nH]3)c2)OCCC(c2cccc(Cl)c2)O1` (stereo not drawn) [Example 24, Cis-5-Biphenyl-4-yl-6-chloro-2-[3-4-(3-chloro-phenyl)-2-oxo-2-lambda*5*-[1,3,2]dioxaphosphinan-2-ylphenoxy]-1H-benzoimidazole]: the Emax was > 80%.

With `O=[P@@]1(c2cccc(Oc3nc4cc(-c5ccc(-c6ccccc6)cc5)c(Cl)cc4[nH]3)c2)OCC[C@@H](c2ccncc2)O1` [Example 25, Trans-5-Biphenyl-4-yl-6-chloro-2-trans-[3-((S)-2-oxo-4-pyridin-4-yl-2lambda*5*-[1,3,2]dioxophosphinan-2-yl)-phenoxy]-1H-benzoimidazole], the Emax was > 80%.

As to `O=P1(c2cccc(Oc3nc4cc(-c5ccc(-c6ccccc6)cc5)c(Cl)cc4[nH]3)c2)OCCC(c2ccncc2)O1` [Example 26, Cis-5-Biphenyl-4-yl-6-chloro-2-[3-((S)-2-oxo-4-pyridin-4-yl-2lambda*5*-[1,3,2]dioxophosphinan-2-yl)-phenoxy]-1H-benzoimidazole], the Emax was > 80%.
